Data from patent US6015877A, “Compounds for inhibition of proteolysis” (President and Fellows of Harvard College, priority 1996, dated 2000).
Like-named read-outs stand apart in the source and are kept apart here. Where no end group is shown, it is not given here. The star is where a group is joined. Farnesyl = CC(C)=CCC/C(C)=C/CC/C(C)=C/C*

Legend:
[1] = system: stereospecific proteolytic enzymatic activity in dog pancreatic microsomes; experiment: Proteolysis of tetrapeptide substrates by dog pancreatic microsomes; format: biochemical; conditions: extended incubation conditions
Procedure: A similar stereospecific proteolytic enzymatic activity was also found in dog pancreatic microsomes. Under extended incubation conditions, where 54% of the tetrapeptide substrate 1 was cleaved by these microsomes, no proteolysis of D-AFC-val-ile-ser 2 could be detected (<1%).

[2] = system: protease of bovine liver microsomal membranes (isoprenylated protein endoprotease); experiment: Proteolysis of N-[3H]acetyl isoprenylated peptide substrates by calf liver microsomal membranes (N-[3H]-AFC formation, HPLC)
[3] = system: isoprenylated protein endoprotease; experiment: Inhibition of the solubilized / partially purified enzyme by non-halomethyl ketone inhibitors; format: biochemical, bovine
[4] = system: second small proteolytic activity, apparent molecular mass approximately 60 kDa; experiment: Inhibition of the second small peak of proteolytic activity (approximately 60 kDa) after gel filtration; format: biochemical, bovine
Source text: These properties of CHAPSO make it ideal, among the detergents tested, for the solubilization of the endoprotease. […] It should be noted that a second small amount of proteolytic activity was also found with an apparent molecular mass of approximately 60 kDa, which amounted to approximately 10% of the major peak, but which chromatographed at a smaller molecular size than the major peak. This smaller peak was not investigate further, for several reasons. Quantitatively, it is not significant. […] It also is no known if the smaller peak of activity i s comprised of an endoproteolytic activity or is simply made up of nonspecific proteases. […] All further studies described here will be relevant to the major solubilized peak of activity.

[5] = system: isoprenylated protein endoprotease; experiment: Inhibition of the isoprenylated protein endoprotease by halomethyl ketones (preincubation, 20-fold dilution, Kitz-Wilson); format: biochemical, bovine; conditions: for Ki: read-out: K1
Procedure: A typical procedure of inhibition is given here to illustrate the details of this procedure. A CHAPSO-solubilized protein preparation (2.5 mg/mL) or a partially […] protein preparation (0.17 mg/mL) was incubated with chloromethyl ketone inhibitors at 37° C. for 30 minutes. Aliquots were removed at timed intervals and diluted with assay buffer E for the solubilized preparation of with assay buffer D for the partially purified protein preparation in 20-fold. The final protein and substrate concentrations were 0.12 mg/mL (or 8.5 μg of partially purified protein preparation per milliliter) and 2.0 μM, respectively, except as otherwise noted; the residual enzyme activity was assayed as described above. TPCK and BFC-CMK were characterized by kinetic measurements. The bimolecular rate constant Kinh /K1 and pseudo-first-order kinetic rate constant Kinh were obtained using the Kitz-Wilson method (Kitz & Wilson, 1962). According to Kitz-Wilson method, the irreversible modification of an enzyme by an active-site directed inhibitor is given by [drawing 9] where K1 =[E]·[I]/[E·I] and -d([E]+[E·I])/dt=Kinh [E·I]. [I] and [E] are inhibitor and enzyme concentrations at a certain time, respectively. Under conditions here [I]>>[Eo ], which is the enzyme concentration at time zero, [I] is constant. Under conditions where the enzyme-inhibitor solution is extensively diluted before the assay, a simplified equation 2 can be obtained as follows: […]
To further establish the specificity of the inactivation process, several commercially available haloketones were studies as putative inactivators of the endoprotease. The structures of these analogs are shown and their activities are shown in Table V. In these studies, the solubilized protein material was preincubated with a chloromethyl ketone inhibitor at 284 μM (unless otherwise noted) for 30 minutes; then 2.5-μL aliquots of the incubated solution were taken and diluted 20-fold for assay of the residual enzyme activity. […] Save for the dipeptide derivatives (ZGGFCMK and ZAPFCMK) derived from TPCK, the other halomethyl ketones tested are virtually inert.
FIG. 16(A) Time-dependent inhibition. 16B Kitz-Wilson plot (the upper panel) for the inhibition of the isoprenylated protein endoprotease by TPCK. The inhibition studies were carried out at 37° C. using the solubilized endoprotease preparation. Aliquote of the inhibitor-enzyme solution were taken at interval times and diluted by a factor of 20, and the enzyme activity was assayed as described in Methods. (B) (the lower panel) the concentration-dependent inhibition of the endoprotease by TPCK. The inhibition studies were carried out at 37° C. The crude CHAPSO-solubilized endoprotease preparations (0.12 mg/mL) were preincubated for 60 min in 50 μL of buffer E in the presence of 284 μM TPCK or TLCK with 6% DMSO and 2% 2-propanol. After the incubation, the reaction solution was diluted by a factor of 20, and the remaining enzyme activity of the inhibitor-enzyme solution was assayed as described in Methods. Data were represented in mean from duplicate runs.

[6] = biological target: T1, cysteine protease apopain (Homo sapiens, UniProt P42574); conditions: cited from earlier work
T1 sequence (P42574 29-175 limits assumed): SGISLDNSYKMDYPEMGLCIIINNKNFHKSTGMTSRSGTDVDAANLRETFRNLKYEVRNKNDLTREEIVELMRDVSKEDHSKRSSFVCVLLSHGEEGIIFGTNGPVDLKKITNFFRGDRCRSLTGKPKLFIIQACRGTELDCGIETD
T1 sequence (P42574 176-277 limits assumed): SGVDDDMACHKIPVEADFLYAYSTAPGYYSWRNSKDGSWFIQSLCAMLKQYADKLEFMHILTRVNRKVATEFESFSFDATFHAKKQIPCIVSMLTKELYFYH

[7] = biological target: T2, cysteine protease ICE (interleukin-1β converting enzyme) (Homo sapiens, UniProt P29466); conditions: cited from earlier work
T2 sequence (P29466 120-297 limits assumed): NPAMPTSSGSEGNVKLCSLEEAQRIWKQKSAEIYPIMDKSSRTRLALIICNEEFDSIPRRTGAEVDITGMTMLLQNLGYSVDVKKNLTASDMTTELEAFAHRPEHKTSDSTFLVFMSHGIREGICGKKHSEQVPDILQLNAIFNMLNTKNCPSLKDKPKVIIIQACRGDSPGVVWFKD
T2 sequence (P29466 317-404 limits assumed): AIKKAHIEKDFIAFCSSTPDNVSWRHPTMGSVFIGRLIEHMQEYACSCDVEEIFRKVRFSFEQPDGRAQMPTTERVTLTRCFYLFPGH

[8] = system: isoprenylated protein endoprotease; conditions: 425 ng partially purified protein preparation in 50 μL
[9] = system: protease of bovine liver microsomal membranes (isoprenylated protein endoprotease); experiment: Inhibition of proteolysis of [3H]-AFC-val-ile-ser by peptides, calf liver microsomes; format: biochemical
Procedure: As expected, the proteolysis of [^3 H]-AFC-val-ile-ser or [^3 H]-(SEQ ID NO: 1) was inhibited by the dipeptide substrate (AFC-val) and by the tripeptide substrate (AFC-val-ile). Incubation of 4 μM substrate along with either 20 μM of the dipeptide or tripeptide led to an approximately 50% diminution in substrate cleavage.

[10] = calf liver microsomal membranes
[11] = solubilized endoprotease preparation, 37° C., Kitz-Wilson
[12] = Table 1, same enzyme preparation, average of two determinations ±S.D.
[13] = former measurement, different microsome preparation from a different animal

## N-acetyl-S-farnesyl-L-cysteine-L-val-L-ile-L-ser (Ac-C(Farnesyl)VIS) [substrate 1]
[1]
  tetrapeptide cleaved (proteolysis): 54%
[2]; [10]
  Km: 4.8 ± 0.6 µM
  Vmax: 0.236±0.008 nmol/min/mg protein
  substrate activity (in words): substrates for the enzyme

## c1cnc2c(c1)ccc1cccnc12 [1,10-.phi., N,N'-phenanthroline]
[3]; 1 mM
  inhibition of the endoprotease (in words): not inhibited
[3]; CHAPSO-solubilized enzyme after gel filtration
  effect on the major (primary) solubilized peak of activity (in words): without effect on the primary peak of activity
[3]; inhibitor 1 mM, control 100
  enzyme activity (%) detergent extract: 90 ± 10%
[4]
  inhibition of the smaller peak of proteolytic activity (in words): potently inhibited

## Cc1ccc(S(=O)(=O)N[C@@H](Cc2ccccc2)C(=O)CCl)cc1 [TPCK, Nα-tosyl-L-phenylalamine chloromethyl ketone]
[5]; 284 μM inhibitor, solubilized protein preincubated 30 minutes, diluted 20-fold, control 100
  enzyme activity (%): 43 ± 5%
[5]; enzyme preincubated with TPCK
  regeneration of enzyme activity after gel filtration chromatography and 24-h dialysis (in words): not regenerated
[5]
  Ki: ~1 mM
[5]; solubilized endoprotease
  inhibition / inactivation of the endoprotease (in words): inhibit the endoprotease well
[5]; [11]
  Kinh (s^-1): (1.4 ± 0.6) × 10^-3 s^-1
  Kinh /K1: 77 ± 6 M⁻¹ min⁻¹
  Ki: 1.1 ± 0.5 mM
[6]
  inhibition of apopain (in words): not
[7]
  inhibition of ICE (in words): inactivated

## N-[^3 H]acetyl-S-farnesyl-L-cysteinyl-L-valyl-L-isoleucyl-L-methionine [AFC--Val--Ile--Met (9)]
[8]
  Km: 650 ± 80 nM
  Vmax: 1.96±0.07 nmol/(min-mg of protein)
[2]; [12]
  Km: 2.96 ± 0.35 µM
  Vmax: 126.3 ± 4.7 pmol/min/mg
[2]; [10]
  substrate activity (in words): good substrate

## NC(=O)CI [IAA, iodoacetamide]
[3]; 0.4 mM
  inhibition of the endoprotease (in words): insensitive
[6]
  inhibition of apopain (in words): inhibited
[7]
  inhibition of ICE (in words): inactivated

## N-[^3 H]-acetyl-S-all-trans-farnesyl-D-Cys-L-Val-L-Ile-L-Ser [D-AFC-val-ile-ser]
[1]
  tetrapeptide cleaved (proteolysis): < 1%
[2]; [10]
  substrate activity (in words): AFC formation did not occur

## CC(C)C[C@H](NC(=O)[C@H]1O[C@@H]1C(=O)O)C(=O)NCCCCN=C(N)N (relative stereo) [E-64, N-[N-(L-3-trans-carboxyoxiran-2-carbonyl)-L-leucyl]agmatine]
[3]; 0.5 mM
  inhibition of the endoprotease (in words): insensitive
[3]; inhibitor 0.11 mM, control 100
  enzyme activity (%) detergent extract: 113 ± 0%
[3]; inhibitor 0.5 mM, control 100
  enzyme activity (%) partially purified: 103 ± 4%
[6]
  inhibition of apopain (in words): not
[7]
  inhibition of ICE (in words): insensitive

## AC-val-ile-ser: tetrapeptide substrate with the farnesyl moiety deleted (Ac-CVIS)
[9]; 5-fold excess over tetrapeptide substrate
  inhibition of tetrapeptide substrate processing (in words): did not interfere with the processing of the substrate

## N-Ac-S-all-trans-farnesyl-L-Cys-L-Val-L-Ile [AFC--Val--Ile (1)]
[9]; 20 μM peptide, 4 μM [3H]-AFC-val-ile-ser substrate
  diminution in substrate cleavage: approximately 50%
[2]; [12]
  Vmax: 57.7 ± 5 pmol/min/mg
[2]; [10]
  Km: 9.2 ± 0.21 µM
  Vmax: 58 ± 4.9 pmol/min/mg
  substrate activity (in words): substrates for the enzyme
[2]; [13]
  Km: 12.6 µM
  Vmax: 65.6 pmol/min/mg
